Structures are written as SMILES.

Here are results for twelve compounds from patent US20200405697A1, “Antitumor Agent” (Taiho Pharmaceutical Co., Ltd, priority 2017, published 2020).

In this assay the test system is A549 (Human lung cancer cell line). The assay can be described thus: Effect of combination of sulfonamide compound and other antitumor agent (CellTiter-Glo, combination index): A549. In general terms: In ATP-based viability assays light output follows the ATP content of the culture.
Setting [1] is: Example Compound 14 4420 nM + 5-Fluorouracil 2700 nM.
The mark [2] stands for this setting: Example Compound 209A 952 nM + 5-Fluorouracil 4310 nM.
The mark [3] stands for this setting: Example Compound 235A 1170 nM + 5-Fluorouracil 4310 nM.
[4] abbreviates: Example Compound 14 4420 nM + Azacytidine 4080 nM.
The mark [5] stands for this setting: Example Compound 209A 635 nM + Azacytidine 2740 nM.
[6] abbreviates: Example Compound 209A 952 nM + Azacytidine 4110 nM.
[7] abbreviates: Example Compound 235A 780 nM + Azacytidine 2740 nM.
The mark [8] stands for this setting: Example Compound 235A 1170 nM + Azacytidine 4110 nM.
Setting [9] is: Example Compound 14 4420 nM + Cabozantinib 6000 nM.
Setting [10] is: Example Compound 209A 952 nM + Cabozantinib 6000 nM.
The mark [11] stands for this setting: Example Compound 235A 1170 nM + Cabozantinib 6010 nM.
The mark [12] stands for this setting: Example Compound 14 4420 nM + Etoposide 3790 nM.
The mark [13] stands for this setting: Example Compound 209A 952 nM + Etoposide 3790 nM.
Setting [14] is: Example Compound 235A 1170 nM + Etoposide 3790 nM.
Setting [15] is: Example Compound 14 4420 nM + Lapatinib 6000 nM.
Setting [16] is: Example Compound 209A 952 nM + Lapatinib 6000 nM.
[17] abbreviates: Example Compound 235A 1170 nM + Lapatinib 6010 nM.
Setting [18] is: Example Compound 14 4420 nM + Luminespib 13.5 nM.
Setting [19] is: Example Compound 209A 952 nM + Luminespib 13.5 nM.
Setting [20] is: Example Compound 235A 1750 nM + Luminespib 8.13 nM.
Where [21] appears, read: Example Compound 14 4420 nM + Midostaurin 251 nM.
Setting [22] is: Example Compound 209A 952 nM + Midostaurin 251 nM.
Setting [23] is: Example Compound 235A 1170 nM + Midostaurin 251 nM.
Where [24] appears, read: Example Compound 14 4420 nM + Olaparib 14800 nM.
[25] abbreviates: Example Compound 209A 952 nM + Olaparib 14800 nM.
[26] abbreviates: Example Compound 235A 1170 nM + Olaparib 14800 nM.
Where [27] appears, read: Example Compound 14 4420 nM + Oxaliplatin 1060 nM.
Setting [28] is: Example Compound 209A 952 nM + Oxaliplatin 1060 nM.
Setting [29] is: Example Compound 235A 1170 nM + Oxaliplatin 1060 nM.
Setting [30] is: Example Compound 14 2950 nM + Sunitinib 1870 nM.
Setting [31] is: Example Compound 14 4420 nM + Sunitinib 2800 nM.
[32] abbreviates: Example Compound 209A 635 nM + Sunitinib 1870 nM.
Setting [33] is: Example Compound 209A 952 nM + Sunitinib 2800 nM.
The mark [34] stands for this setting: Example Compound 235A 780 nM + Sunitinib 1870 nM.
Setting [35] is: Example Compound 235A 1170 nM + Sunitinib 2810 nM.
Setting [36] is: Example Compound 14 4420 nM + Talazoparib 7990 nM.
The mark [37] stands for this setting: Example Compound 209A 952 nM + Talazoparib 8000 nM.
The mark [38] stands for this setting: Example Compound 235A 1170 nM + Talazoparib 8000 nM.
[39] abbreviates: Example Compound 14 1970 nM + Trifluridine 288 nM.
Where [40] appears, read: Example Compound 14 2950 nM + Trifluridine 431 nM.
[41] abbreviates: Example Compound 209A 635 nM + Trifluridine 431 nM.
Where [42] appears, read: Example Compound 235A 780 nM + Trifluridine 431 nM.

On to `O=c1[nH]cc(F)c(=O)[nH]1` [5-Fluorouracil, 5-fluorouracil], for which the CI value reads like this: under setting [1], 0.880; under setting [2], 0.853; under setting [3], 0.880. Moreover, the Fa value stood at 0.6619 under setting [1], 0.7187 under setting [2] and 0.6738 under setting [3].
For `Nc1ncn([C@@H]2O[C@H](CO)[C@@H](O)[C@H]2O)c(=O)n1` [Azacytidine, azacitidine], the CI value is, setting by setting: under setting [4], 0.744; under setting [5], 0.850; under setting [6], 0.520; under setting [7], 0.822; under setting [8], 0.767. The Fa value runs as follows: under setting [4], 0.7570; under setting [5], 0.6005; under setting [6], 0.8264; under setting [7], 0.5392; under setting [8], 0.6909.
For `COc1cc2nccc(Oc3ccc(NC(=O)C4(C(=O)Nc5ccc(F)cc5)CC4)cc3)c2cc1OC` [Cabozantinib, cabozantinib], the CI value turned out to be 0.868 under setting [9], 0.486 under setting [10] and 0.871 under setting [11]. Besides, the Fa value under setting [9] is 0.7829, the Fa value under setting [10] is 0.8982 and the Fa value under setting [11] came out at 0.7659.
As for `COc1cc([C@@H]2c3cc4c(cc3[C@@H](O[C@@H]3O[C@@H]5CO[C@@H](C)O[C@H]5[C@H](O)[C@H]3O)[C@H]3COC(=O)[C@H]23)OCO4)cc(OC)c1O` [Etoposide, etoposide], the CI value under setting [12] was determined as 0.707, the CI value under setting [13] was found to be 0.635 and the CI value under setting [14] is 0.763. The Fa value by setting is: under setting [12], 0.7245; under setting [13], 0.7460; under setting [14], 0.6978.
On to `CS(=O)(=O)CCNCc1ccc(-c2ccc3ncnc(Nc4ccc(OCc5cccc(F)c5)c(Cl)c4)c3c2)o1` [Lapatinib, lapatinib], for which the CI value runs as follows: under setting [15], 0.512; under setting [16], 0.443; under setting [17], 0.417. In addition, the Fa value is, setting by setting: under setting [15], 0.8641; under setting [16], 0.8816; under setting [17], 0.8726.
In the case of `CCNC(=O)c1noc(-c2cc(C(C)C)c(O)cc2O)c1-c1ccc(CN2CCOCC2)cc1` [Luminespib, luminespib], the CI value by setting is: under setting [18], 0.786; under setting [19], 0.832; under setting [20], 0.819. For the same compound, the Fa value by setting is: under setting [18], 0.8373; under setting [19], 0.8172; under setting [20], 0.8795.
In the case of `CO[C@@H]1[C@H](N(C)C(=O)c2ccccc2)C[C@H]2O[C@]1(C)n1c3ccccc3c3c4c(c5c6ccccc6n2c5c31)C(=O)NC4` [Midostaurin, midostaurin], the CI value reads like this: under setting [21], 0.719; under setting [22], 0.583; under setting [23], 0.775. In addition, the Fa value is 0.8117 under setting [21], 0.8520 under setting [22] and 0.7639 under setting [23].
As to `O=C(c1cc(Cc2n[nH]c(=O)c3ccccc23)ccc1F)N1CCN(C(=O)C2CC2)CC1` [Olaparib, olaparib], the CI value is reported as 0.668 under setting [24], 0.478 under setting [25] and 0.683 under setting [26]. Also, the Fa value by setting is: under setting [24], 0.7031; under setting [25], 0.7947; under setting [26], 0.6832.
Turning to `O=C1[O][Pt]2([NH][C@@H]3CCCC[C@H]3[NH]2)[O]C1=O` [Oxaliplatin, oxaliplatin], the CI value is, setting by setting: under setting [27], 0.829; under setting [28], 0.762; under setting [29], 0.793. The Fa value by setting is: under setting [27], 0.7498; under setting [28], 0.7832; under setting [29], 0.7355.
In the case of `CCN(CC)CCNC(=O)c1c(C)[nH]c(/C=C2\C(=O)Nc3ccc(F)cc32)c1C` [Sunitinib, sunitinib], the CI value was found to be 0.693 under setting [30]; 0.728 under setting [31]; 0.688 under setting [32]; 0.723 under setting [33]; 0.709 under setting [34]; 0.675 under setting [35]. For the same compound, the Fa value by setting is: under setting [30], 0.7017; under setting [31], 0.8248; under setting [32], 0.6919; under setting [33], 0.8234; under setting [34], 0.6775; under setting [35], 0.8225.
Turning to `Cn1ncnc1[C@H]1c2n[nH]c(=O)c3cc(F)cc(c23)N[C@@H]1c1ccc(F)cc1` [Talazoparib, talazoparib], the CI value under setting [36] came out at 0.540, the CI value under setting [37] turned out to be 0.422 and the CI value under setting [38] was 0.585. Moreover, the Fa value under setting [36] is given as 0.7406, the Fa value under setting [37] was found to be 0.7998 and the Fa value under setting [38] is given as 0.6990.
In the case of `O=c1[nH]c(=O)n([C@H]2C[C@H](O)[C@@H](CO)O2)cc1C(F)(F)F` [Trifluridine, trifluridine], the CI value runs as follows: under setting [39], 0.892; under setting [40], 0.844; (Example Compound 14 4420 nM + Trifluridine 645 nM) 0.678; (Example Compound 14 6640 nM + Trifluridine 969 nM) 0.791; under setting [41], 0.897; (Example Compound 209A 952 nM + Trifluridine 646 nM) 0.733. For the same compound, the CI value runs as follows: (Example Compound 209A 1430 nM + Trifluridine 970 nM) 0.775; under setting [42], 0.869; (Example Compound 235A 1170 nM + Trifluridine 646 nM) 0.680; (Example Compound 235A 1750 nM + Trifluridine 967 nM) 0.739. In addition, the Fa value is 0.4363 under setting [39], 0.6485 under setting [40], 0.5907 under setting [41] and 0.5850 under setting [42].
